Assay [1] deals with T1, RORγt ligand-binding domain (RORγt-LBD) (Homo sapiens, UniProt P51449).
T1 construct: 20 nM recombinantly expressed RORγ-LBD fused to GST
T1 sequence (P51449 269-508 limits assumed): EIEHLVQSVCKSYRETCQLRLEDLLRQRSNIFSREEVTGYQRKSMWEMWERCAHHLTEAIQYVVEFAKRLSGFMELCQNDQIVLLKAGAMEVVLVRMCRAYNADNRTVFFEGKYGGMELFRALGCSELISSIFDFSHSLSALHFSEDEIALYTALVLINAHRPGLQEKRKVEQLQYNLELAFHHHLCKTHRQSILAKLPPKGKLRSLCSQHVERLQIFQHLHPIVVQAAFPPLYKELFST
The experiment in a line: Time-resolved FRET (TR-FRET) RORγt coactivator assay. The class given is biochemical. To be noted: GST-RORγ-LBD, biotinylated RIP140 peptide, coactivator displacement.

Assay [2] deals with T2, human RORγt (Homo sapiens, UniProt P51449).
T2 sequence (P51449 1-497 isoform P51449-2): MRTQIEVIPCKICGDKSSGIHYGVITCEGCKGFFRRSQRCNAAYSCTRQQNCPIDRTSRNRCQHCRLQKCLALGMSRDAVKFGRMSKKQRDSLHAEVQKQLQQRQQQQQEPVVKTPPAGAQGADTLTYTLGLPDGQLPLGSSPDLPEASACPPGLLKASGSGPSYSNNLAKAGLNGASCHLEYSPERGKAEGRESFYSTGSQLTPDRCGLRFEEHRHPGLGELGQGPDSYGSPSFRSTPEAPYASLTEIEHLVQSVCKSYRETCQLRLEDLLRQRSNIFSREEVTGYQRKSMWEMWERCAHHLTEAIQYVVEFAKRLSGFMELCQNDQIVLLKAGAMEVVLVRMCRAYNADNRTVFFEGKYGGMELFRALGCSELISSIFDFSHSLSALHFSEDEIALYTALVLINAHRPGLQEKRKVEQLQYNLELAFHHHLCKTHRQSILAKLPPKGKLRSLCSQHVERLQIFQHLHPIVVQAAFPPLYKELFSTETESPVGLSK
The experiment in a line: RORE luciferase/RORγt transactivation assay. The class given is cell-based. Details: expressed in transfected cells. To be noted: COS-7 cells transfected with IL-17 promoter luciferase reporter and RORγt plasmid, 20 h. From the text:
It is well known that RORγ binds to a conserved non-coding sequence (CNS) enhancer element in the IL-17 promoter. Accordingly, we have used in this assay a luciferase reporter gene construct that contains the human IL-17 promoter fragment with RORγ-specific CNS enhancer element and a RORγt overexpressing plasmid, to indirectly assess the effect of compounds on RORγ activity. Inhibition of RORγ activity by test compounds will result in a decrease in luciferase activity in COS-7 cells transfected with the reporter construct.
Monkey Kidney COS-7 cell line are maintained in a standard culture medium Dulbecco's modified Eagle's minimal (DMEM) medium supplemented with 10% fetal calf serum, 1% sodium pyruvate, 1% essential amino acids and 1% antibiotics at 37° C. in a humidified atmosphere of 5% CO2 and 95% air. Culture medium was changed every 2 days.
The 4.3 Kb human IL-17 promoter containing the RORγ-specific CNS enhancer element was PCR amplified from human genomic DNA and cloned into a pGL3-TKLuc2Cp reporter plasmid. To overexpress RORγt, the full-length cDNA of human RORγt (identical to published sequence NM 001001523) was cloned without any restriction into pcdna3.1DV5-His-topo to generate the RORγt overexpression plasmid “RORγt_FL_h_pcDNA3.1DV5-His-TOPO_1”.
The luciferase reporter plasmid and the RORγt overexpression plasmid were transfected into COS-7 cell line using 4 μLJetPEITM/μg of DNA. Briefly, 150 ng of DNA (ration ½ between RORE-Tk Luc2Cp and cDNA RORγt or the empty vector for the negative control) was served to transfect adherent COS-7 cells in a […] culture flask, in complete medium (see cos-7 cell line culture). Cells were incubated for 24 hours in a humidified atmosphere of 5% CO2 and 95% air
Cells were then detached (using trypsin) and washed by centrifugation at 300 g for 10 minutes. Cell pellet was resuspended in serum free/phenol red free DMEM and seeded in 384 well plates at a density of 10000 cells/well and then incubated for 4 h at 37° C.
Compounds were dissolved in 100% DMSO to obtain 10 mM stock solutions. For each compound, test concentrations were diluted in serum free/phenol red free DMEM using the Genesis Freedom 200™ (TECAN) and added to the cells to obtain a 0.3% DMSO final concentration (in a final volume of 40 μL per well). T091317 was used as reference compound. Cells were incubated in presence of compounds for an additional 20 h at 37° C. in a humidified atmosphere of 5% CO2 and 95% air
The luciferase activity was then measured with 40 μL/well steady-Glo Luciferase assay system (Promega, Madison, Wis.) and after incubation at room temperature for 30 minutes. The luminescence was estimated using the Ultra384 reader (TECAN). Data were collected and analyzed using GraphPad Prism software (GraphPad Software V5.02, San Diego Calif. USA). IC50 in μM and Emax in % were reported for each compound.

Assay [3] has as its target T2, human RORγt. The experiment in a line: IL-17 secretion from EL4 murine lymphoma overexpressing human RORγt. The class given is cell-based. More on the design: expressed in transfected cells; host or cells: EL-4 murine lymphoma. To be noted: IL-17 secretion inhibition, PMA and ionomycin stimulation, 24 h. The gist of the method: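 EL4 murine lymphoma cells electroporated with hRORγt plasmid, seeded 150000 cells/well, pretreated with compound, then stimulated with PMA (10 ng/mL) and ionomycin (1 μM final) with compound for a further 24 h at 37° C. IL-17 in supernatant measured by HTRF or ELISA.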

Structures are written as SMILES.

As a reminder, the IC50 is the point on the concentration scale where inhibition reaches its midpoint. Higher therefore signals weaker potency in that assay. For the compound `Cc1ccc(F)c(C(NC(=O)Cc2ccc3[nH]cc(CCC(=O)O)c3c2)c2ccccc2)c1` (centres unmarked) [Cpd. 19, 3-[5-({[(2-fluoro-5-methylphenyl)(phenyl)methyl]carbamoyl}methyl)-1H-indol-3-yl]propanoic acid], the IC50 in assay [1] is 1000 to 10000 nM; at human RORγt [2], greater than 10000 nM.
For `O=C(O)Cc1c[nH]c2ccc(CC(=O)NC(c3ccccc3)c3ccccc3N3CCCCC3)cc12` (centres unmarked) [Cpd. 39, 2-{5-[({phenyl[2-(piperidin-1-yl)phenyl]methyl}carbamoyl)methyl]-1H-indol-3-yl}acetic acid], in that order: 1000 to 10000 nM and 1000 to 10000 nM.
For the compound `Cc1ccc(C(NC(=O)Cc2ccc3[nH]cc(CCC(=O)O)c3c2)c2ccccc2)c(F)c1` (centres unmarked) [Cpd. 17, 3-[5-({[(2-fluoro-4-methylphenyl)(phenyl)methyl]carbamoyl}methyl)-1H-indol-3-yl]propanoic acid], the values for the IC50 (in assay [1]; against human RORγt [2]) were 1000 to 10000 nM and greater than 10000 nM, respectively.
Turning to `Cc1ccc(C(NC(=O)Cc2ccc3[nH]cc(CCC(=O)O)c3c2)c2ccccc2)c2ccccc12` (centres unmarked) [compound 37, 3-[5-({[(4-methylnaphthalen-1-yl)(phenyl)methyl]carbamoyl}methyl)-1H-indol-3-yl]propanoic acid], the IC50 is 10000 to 30000 nM against human RORγt [3], less than 1000 nM in assay [1] and 1000 to 10000 nM at human RORγt [2].
Turning to `Cc1ccc(C(NC(=O)Cc2ccc3[nH]cc(CCC(=O)O)c3c2)c2ccccn2)c(C)c1` (centres unmarked) [Cpd. 21, 3-[5-({[(2,4-dimethylphenyl)(pyridin-2-yl)methyl]carbamoyl}methyl)-1H-indol-3-yl]propanoic acid], the IC50 in assay [1] is less than 1000 nM; at human RORγt [2], greater than 10000 nM.
For `Cc1ccc(C(NC(=O)Cc2ccc3[nH]cc(CCC(=O)O)c3c2)c2ccccc2)c2ncccc12` (centres unmarked) [compound 31, 3-[5-({[(5-methylquinolin-8-yl)(phenyl)methyl]carbamoyl}methyl)-1H-indol-3-yl]propanoic acid], in that order: less than 1000 nM and greater than 10000 nM.
As to `Cc1ccc(C(NC(=O)Cc2ccc3[nH]cc(CCC(=O)O)c3c2)c2ccc(C)o2)c(N2CCCCC2)c1` (centres unmarked) [compound 268, 3-{5-[({[4-methyl-2-(piperidin-1-yl)phenyl](5-methylfuran-2-yl)methyl}carbamoyl)methyl]-1H-indol-3-yl}propanoic acid], the IC50 (in assay [1]; against human RORγt [2]) was less than 1000 nM in each case.
With `O=C(O)CCc1c[nH]c2ccc(CC(=O)NC(c3ccccc3)c3ccccc3N3CCCCCC3)cc12` (centres unmarked) [compound 35, 3-{5-[({[2-(azepan-1-yl)phenyl](phenyl)methyl}carbamoyl)methyl]-1H-indol-3-yl}propanoic acid], the IC50 is 1000 to 10000 nM at human RORγt [3], less than 1000 nM in assay [1] and less than 1000 nM against human RORγt [2].
`Cc1cc(Cl)ccc1C(NC(=O)Cc1ccc2[nH]cc(CCC(=O)O)c2c1)c1ccccc1` (centres unmarked) [compound 33, 3-[5-({[(4-chloro-2-methylphenyl)(phenyl)methyl]carbamoyl}methyl)-1H-indol-3-yl]propanoic acid]: the IC50 in assay [1] is less than 1000 nM; on human RORγt [2] it was 1000 to 10000 nM.
For `Cc1ccc(C(NC(=O)Cc2ccc3[nH]cc(CCC(=O)O)c3c2)c2ccccc2)c(Cl)c1` (centres unmarked) [Cpd. 7, 3-[5-({[(2-chloro-4-methylphenyl)(phenyl)methyl]carbamoyl}methyl)-1H-indol-3-yl]propanoic acid], in that order: less than 1000 nM and 1000 to 10000 nM.
Turning to `Cc1ccc(C(NC(=O)Cc2ccc3[nH]cc(CCC(=O)O)c3c2)c2ccccc2)c(Br)c1` (centres unmarked) [Cpd. 9, 3-[5-({[(2-bromo-4-methylphenyl)(phenyl)methyl]carbamoyl}methyl)-1H-indol-3-yl]propanoic acid], the IC50 is less than 1000 nM in assay [1] and 1000 to 10000 nM against human RORγt [2].
For `Cc1ccc(C(NC(=O)Cc2ccc3[nH]cc(CCC(=O)O)c3c2)c2cccnc2)c(C)c1` (centres unmarked) [compound 27, 3-[5-({[(2,4-dimethylphenyl)(pyridin-3-yl)methyl]carbamoyl}methyl)-1H-indol-3-yl]propanoic acid], in that order: 1000 to 10000 nM and greater than 10000 nM.
For the compound `Cc1ccc(C(NC(=O)Cc2ccc3[nH]cc(CCC(=O)O)c3c2)c2ccccc2)c(N2CCCC2)n1` (centres unmarked) [Cpd. 15, 3-{5-[({[6-methyl-2-(pyrrolidin-1-yl)pyridin-3-yl](phenyl)methyl}carbamoyl)methyl]-1H-indol-3-yl}propanoic acid], the values for the IC50 (on human RORγt [3]; in assay [1]; against human RORγt [2]) were 10000 to 30000 nM, less than 1000 nM and 1000 to 10000 nM, respectively.

(Values after patent US9902725B2, “Heterocyclic derivatives as RORgamma modulators” (GENFIT, priority 2014, dated 2018).)
